Laboratory results reported in US20260144805A1, “CANNABIDIOL COMPOSITIONS FOR USE IN THE TREATMENT OF NEURODEGENERATIVE AND NEUROLOGICAL DISORDERS” (JAZZ PHARMACEUTICALS RESEARCH UK LIMITED, priority 2022, published 2026).

Legend:
rTg4510 mice = assay: Open Field (OF) test, locomotor activity in rTg4510 mouse model of Alzheimer's Disease (Example 2; DS = DS-C); assay type: in vivo; conditions: for Locomotor activity totals, Mean / Locomotor activity totals, % vs Wild-type / Locomotor activity totals, % vs rTg4510: Doxycycline 200 ppm diet
Procedure: The aim of this study was to evaluate the efficacy of the present drug substance to modulate the agitation-like behaviours in the rTg4510 regulatable mouse model of Alzheimer's Disease (AD). Animals were tested in a behavioural assay, the Open Field (OF) test to measure locomotor activity (LMA). Activity was first assessed at a 21-week-old baseline to determine whether a hyperactive phenotype (to be used as a proxy for agitation) had developed and was further assessed at 2 subsequent ages in acute and chronic efficacy phases.
Ninety male rTg4510 (CC) mice and 15 wild-type (WW) (Tg(Camk2a-tTA)1Mmay Fgf14^Tg(tetO-MAPT*P301L)4510Kha/J, Jax strain #024854, licensed from the Mayo Clinic, USA) were split into 2 cohorts, 4 weeks apart in age; cohort 1 contained 53 mice (8 WW and 45 CC) and cohort 2 contained 52 mice (7 WW and 45 CC). Relative humidity was 55±15% throughout. Mice were housed in individually ventilated cages on a 12 h/12 h light/dark cycle (lights on at 07.00 h; illumination by red light during the dark phase), at an ambient temperature of 24±4° C. with free access to standard rodent maintenance diet and filtered water. Animals were allowed to acclimatise to the above conditions for 7-10 days prior to the study start. All housing groupings were preserved until the mice were approximately 5 months old, at which point they were singly housed.
Doxycycline administration: a subset of animals in cohort 2 (n=15) was administered 2× daily oral bolus doses of doxycycline hyclate (10 mg/kg p.o. in 5% glucose, Sigma Aldrich) at 13 weeks of age, followed by continuous exposure to normal lab chow containing 200 ppm doxycycline (Envigo Teklad 2018 TD.00502 no colourants, irradiated and vacuum-packed). All other animals received Envigo Teklad 2018 diet. All diet was provided ad libitum.
Following this regime, animals were evaluated in Open Field (OF) test, before being deeply anaesthetised at the end of the behavioural testing prior to biofluid sampling and tissue harvesting.
Specifically, the material was solubilised by the addition of 50 μL of 10% glacial acetic acid and making up to volume with 0.9% saline (Aquapharm, Animal Care, York, UK, Lot 21030311).
Drug Substance (DS): (i.e., DS-C, See Table B in Example 1) Dosing volume was 10 mL/kg and DS was formulated at the 150 mg/kg dose in a vehicle of ethanol: Kolliphor HS15: 0.9% saline (1:12:87, w/w/v) which were stored at room temperature and added at approximately 60° C. to form solutions which were subsequently stable at room temperature. All dosing formulations were protected from light whenever possible. Dosing solutions were made fresh on the day of dosing, with lower dose formulations being prepared by dilution from the 150 mg/kg dosing solution at room temperature.
Locomotor activity was assessed by OF test in the light phase of the light-dark cycle at weeks 21, 26 and 31. An automated beam break apparatus (40 cages) was used for the assessment of locomotor activity in rats and mice. Each cage had 4 beams; 1 ‘y’ and 3 ‘x’ which triggered a signal through capacitors when the beam was broken. Signals were collected by data loggers and processed accordingly. All animals were placed in the apparatus and spontaneous activity was assessed for a four-hour period between 0900 and 1300. Animals were then removed from the apparatus and returned to their home cages. LMA assessment was split over 2 consecutive days at each time point.
For locomotor data, a log (x+1) transformation was used. For weeks 21 & 26, means and SEMs were calculated from the transformed data. Analysis was by Friedman's two-way nonparametric ANOVA with treatment and test day as factors to compare each group to the WW animals, and (where appropriate) Doxycycline with the untreated rTg4510 group. For week 30, data excluding the WW and Doxycycline groups for each time period were analysed by robust regression model using M estimation, Huber weighting, using the default parameter c=1.345. […]

[1] = Weekly body weight of rTg4510 mice (Example 2); assay type: in vivo, mouse; conditions: rTg4510 mice fed doxycycline; 15 weeks of age
Procedure: Weekly bodyweight: all animals were weighed weekly until the end of the study.
Weekly body weight data were analysed by mixed linear model with the cohort by week and group by week interactions as fixed effects, animal as the random subject, using an AR (1)+RE correlation structure. Comparisons to the WW and rTg4510 (vehicle) groups for the same week were by the multiple t test.

[2] = Brain weight of rTg4510 mice (Example 2); assay type: in vivo, mouse; conditions: rTg4510 CC mice administered doxycycline; end of study
Procedure: Brain Tissue Collection: Mice were decapitated and the brains rapidly extracted. Brains were briefly washed in saline and blot dried then hemisected, weighed separately and frozen on dry ice before storage at approximately −80° C.
Brain weights were analysed by 2-way analysis of variance with treatment and cohort as factors.

[3] = Week 31, 0-240 minute period, doxycycline-treated group

C[C@H]1c2cccc(O)c2C(=O)C2=C(O)[C@]3(O)C(=O)C(C(N)=O)=C(O)[C@@H](N(C)C)[C@@H]3[C@@H](O)[C@@H]21 [Doxycycline, doxycycline hyclate]
Locomotor activity totals, Mean (rTg4510 mice; Week 21, 0-30 minutes): 855.0 | Locomotor activity totals, Mean (rTg4510 mice; Week 21, 0-60 minutes): 1624.9 | Locomotor activity totals, Mean (rTg4510 mice; Week 21, 0-240 minutes): 3476.4 | Locomotor activity totals, Mean (rTg4510 mice; Week 21, 30-60 minutes): 749.9 | Locomotor activity totals, Mean (rTg4510 mice; Week 21, 60-90 minutes): 542.2 | Locomotor activity totals, Mean (rTg4510 mice; Week 21, 60-120 minutes): 880.1 | Locomotor activity totals, Mean (rTg4510 mice; Week 21, 90-120 minutes): 283.2 | Locomotor activity totals, Mean (rTg4510 mice; Week 21, 120-150 minutes): 227.4 | Locomotor activity totals, Mean (rTg4510 mice; Week 21, 120-180 minutes): 521.1 | Locomotor activity totals, Mean (rTg4510 mice; Week 21, 150-180 minutes): 181.8 | Locomotor activity totals, Mean (rTg4510 mice; Week 21, 180-210 minutes): 71.1 | Locomotor activity totals, Mean (rTg4510 mice; Week 21, 180-240 minutes): 212.8 | Locomotor activity totals, Mean (rTg4510 mice; Week 21, 210-240 minutes): 52.4 | Locomotor activity totals, Mean (rTg4510 mice; Week 26, 0-30 minutes): 903.7 | Locomotor activity totals, Mean (rTg4510 mice; Week 26, 0-60 minutes): 1606.6 | Locomotor activity totals, Mean (rTg4510 mice; Week 26, 0-240 minutes): 3435.5 | Locomotor activity totals, Mean (rTg4510 mice; Week 26, 30-60 minutes): 664.6 | Locomotor activity totals, Mean (rTg4510 mice; Week 26, 60-90 minutes): 489.8 | Locomotor activity totals, Mean (rTg4510 mice; Week 26, 60-120 minutes): 770.3 | Locomotor activity totals, Mean (rTg4510 mice; Week 26, 90-120 minutes): 186.7 | Locomotor activity totals, Mean (rTg4510 mice; Week 26, 120-150 minutes): 157.0 | Locomotor activity totals, Mean (rTg4510 mice; Week 26, 120-180 minutes): 459.9 | Locomotor activity totals, Mean (rTg4510 mice; Week 26, 150-180 minutes): 142.2 | Locomotor activity totals, Mean (rTg4510 mice; Week 26, 180-210 minutes): 185.3 | Locomotor activity totals, Mean (rTg4510 mice; Week 26, 180-240 minutes): 362.6 | Locomotor activity totals, Mean (rTg4510 mice; Week 26, 210-240 minutes): 41.3 | Locomotor activity totals, % vs Wild-type (rTg4510 mice; Week 31, 0-30 minutes): 143.2% | Locomotor activity totals, % vs rTg4510 (rTg4510 mice; Week 31, 0-30 minutes): 58.7% | Locomotor activity totals, Mean (rTg4510 mice; Week 31, 0-30 minutes): 744.04 | Locomotor activity totals, % vs Wild-type (rTg4510 mice; Week 31, 0-60 minutes): 144.7% | Locomotor activity totals, % vs rTg4510 (rTg4510 mice; Week 31, 0-60 minutes): 47.6% | Locomotor activity totals, Mean (rTg4510 mice; Week 31, 0-60 minutes): 1216.28 | activity as % of the activity seen in the WW animals (rTg4510 mice; [3]): 100.6% | activity as % of the activity seen in the rTg4510(vehicle) animals (rTg4510 mice; [3]): 26.2% | Locomotor activity totals, % vs Wild-type (rTg4510 mice; Week 31, 30-60 minutes): 141.7% | Locomotor activity totals, % vs rTg4510 (rTg4510 mice; Week 31, 30-60 minutes): 35.3% | Locomotor activity totals, Mean (rTg4510 mice; Week 31, 30-60 minutes): 445.74 | Locomotor activity totals, % vs Wild-type (rTg4510 mice; Week 31, 60-90 minutes): 153.3% | Locomotor activity totals, % vs rTg4510 (rTg4510 mice; Week 31, 60-90 minutes): 37.0% | Locomotor activity totals, Mean (rTg4510 mice; Week 31, 60-90 minutes): 231.53 | Locomotor activity totals, % vs Wild-type (rTg4510 mice; Week 31, 60-120 minutes): 176.8% | Locomotor activity totals, % vs rTg4510 (rTg4510 mice; Week 31, 60-120 minutes): 49.4% | Locomotor activity totals, Mean (rTg4510 mice; Week 31, 60-120 minutes): 477.89 | Locomotor activity totals, % vs Wild-type (rTg4510 mice; Week 31, 90-120 minutes): 324.4% | Locomotor activity totals, % vs rTg4510 (rTg4510 mice; Week 31, 90-120 minutes): 110.8% | Locomotor activity totals, Mean (rTg4510 mice; Week 31, 90-120 minutes): 165.38 | Locomotor activity totals, % vs Wild-type (rTg4510 mice; Week 31, 120-150 minutes): 134.8% | Locomotor activity totals, % vs rTg4510 (rTg4510 mice; Week 31, 120-150 minutes): 63.1% | Locomotor activity totals, Mean (rTg4510 mice; Week 31, 120-150 minutes): 105.17 | Locomotor activity totals, % vs Wild-type (rTg4510 mice; Week 31, 150-180 minutes): 135.0% | Locomotor activity totals, % vs rTg4510 (rTg4510 mice; Week 31, 150-180 minutes): 33.9% | Locomotor activity totals, Mean (rTg4510 mice; Week 31, 150-180 minutes): 28.13 | Locomotor activity totals, % vs Wild-type (rTg4510 mice; Week 31, 180-210 minutes): 8.9% | Locomotor activity totals, % vs rTg4510 (rTg4510 mice; Week 31, 180-210 minutes): 5.6% | Locomotor activity totals, Mean (rTg4510 mice; Week 31, 180-210 minutes): 1.72 | Locomotor activity totals, % vs Wild-type (rTg4510 mice; Week 31, 210-240 minutes): 90.8% | Locomotor activity totals, % vs rTg4510 (rTg4510 mice; Week 31, 210-240 minutes): 117.5% | Locomotor activity totals, Mean (rTg4510 mice; Week 31, 210-240 minutes): 16.18 | body weight [1]: 29.14 ± 0.50 g | mean brain weight [2]: 408.8 ± 6.1 mg
